From patent US11865101B2, “Cromolyn metal complexes as enhanced pharmaceutical formulations and method of preparing the same” (University of Puerto Rico, priority 2020, dated 2024)

How the values were obtained:
[1] = orally administered, absorption from the gastrointestinal tract; cited from earlier work
[2] = at 20° C.; cited from earlier work
[3] = Dissolution profile in PBS (pH 7.40) at 37° C., UV absorbance at 237 nm; assay type: physicochemical; conditions: PBS pH=7.40, 37° C., 150 rpm, after 1 hr
Procedure: Dissolution profiles—Dissolution profiles were recorded for CS, Cromolyn-Zn, Cromolyn-Mg, and Cromolyn-Ca and quantified by measuring absorbance at 237 nm against a reagent blank containing the buffered media. Dissolution tests were performed in a PBS buffer (pH=7.40) and FaSSGF (pH=1.60) at 37° C. under constant stirring (150 rpm). Absorbance measurements were performed on an Agilent Technologies Cary Series UV-Vis Spectrophotometer, Cary 100 UV-Vis model; using the UV Cary Scan software version v.20.0.470. Stock Solution: A standard stock solution of CS was prepared by dissolving 10 mg in a 100 mL (0.1 mg/mL) volumetric flask and completing to volume with PBS. Dilute solutions were obtained by appropriate dilution of this stock solution. […] PBS was used as the solvent. The absorbance of CS was measured at maximum absorption wavelength (λmax) of 237 nm against a solvent blank (PBS). […] Dissolution profiles were recorded for CS, Cromolyn-Zn, Cromolyn-Mg, and Cromolyn-Ca. […] The absorbance of CS was measured at 237 nm against the solvent blank. […] Absorbance measurements were performed on an Agilent Technologies Cary Series UV-Vis Spectrophotometer, Cary 100 UV-Vis; using the UV Cary Scan software version v.20.0.470. […] The absorbance was measured at the maximum wavelength (λmax=237 nm) for CS as the degradation of the pMCs progressed in PBS over time. […]

[4] = noted by others; above it CS forms supramolecular aggregates; cited from earlier work
[5] = Dissolution / stability in FaSSGF (pH 1.60) at 37° C.; assay type: physicochemical; conditions: FaSSGF pH=1.60, 37° C.
Procedure: Dissolution profiles—Dissolution profiles were recorded for CS, Cromolyn-Zn, Cromolyn-Mg, and Cromolyn-Ca and quantified by measuring absorbance at 237 nm against a reagent blank containing the buffered media. Dissolution tests were performed in a PBS buffer (pH=7.40) and FaSSGF (pH=1.60) at 37° C. under constant stirring (150 rpm). Absorbance measurements were performed on an Agilent Technologies Cary Series UV-Vis Spectrophotometer, Cary 100 UV-Vis model; using the UV Cary Scan software version v.20.0.470.
The stability of these materials in biologically relevant media was used to understand the ability of the pMCs to sustain blood plasma concentration for CS. A higher blood concentration might allow for longer circulation times and adequate delivery to the target tissues and organs. This is currently a pharmacological disadvantage for oral formulations of CS (<1% bioavailability and low solubility ˜100.0 mg/mL at 20° C.). […] Therefore, no further dissolution studies were carried out in this media.

maximum concentration of CS dissolved [3]: ~98%
dissolution / degradation in FaSSGF [5]: no detectable dissolution
SMILES: O=C(O)c1cc(=O)c2c(OCC(O)COc3cccc4oc(C(=O)O)cc(=O)c34)cccc2o1 [CS, cromolyn sodium]
bioavailability [1]: < 1%
solubility [2]: ~100.0 mg/mL
critical self-association concentration [4]: 10.00 mg/mL
